This note sets out measurements from the Deep4Chem optical property database.

The structures appear in SMILES notation. Values joined by “and” are separate entries in the source; they are usually repeats but may differ in a detail not shown here. Equal entries are not always repeated.

The first series in a line: solvent given as SMILES. The conditions noted are these: in C1CCCCC1.
`CC(=O)c1c2c(cc3ccc(N(C)C)cc13)CCC2` had an emission maximum of 466 nm.
The compound `CCCC1(CCC)c2ccccc2-c2ccc(-c3ccc(OC)cc3)cc21` registered an emission maximum of 345 nm.
`CN(C)c1ccc(/C=C(\C#N)c2nc3ccccc3s2)cc1` had an emission maximum of 500 nm.

The same series, now with this note: in C1CCOC1.
Compound `COc1cc2c(cc1-c1ccc(C)cc1)Cc1c3c(c4c(c1-2)-c1cc(OC)c(-c2ccc(C)cc2)cc1C4)C(=O)N(CCC(C)C)C3=O` registered an emission maximum of 476 nm.
The same measure, in the same setting: the figure for `F[B-]1(F)n2c(c(-c3ccccc3)c(-c3ccccc3)c2-c2ccccc2)C=C2C(c3ccccc3)=C(c3ccccc3)C(c3ccccc3)=[N+]21` is 608 nm; for `COc1ccccc1C1=[N+]2C(=Cc3c4cc5ccccc5cc4c(-c4ccccc4OC)n3[B-]2(F)F)c2cc3ccccc3cc21` it is 760 nm; for `CC(C)(C)c1cc2c3c(c1)-c1cccc4c1N(B3N1c3ccccc3Sc3cccc-2c31)c1ccccc1S4` it is 731 nm.
`CC(=O)c1c2c(cc3ccc(N(C)C)cc13)CCC2`: the emission maximum is 497 nm.
The compound `CCCCCCCCC1(CCCCCCCC)c2cc(C#CC#Cc3ccc(N(c4ccccc4)c4ccccc4)cc3)ccc2-c2ccc(C=O)cc21` yielded an emission maximum of 498 nm.
The same measure, in the same setting: the figure for `C(=C\c1nc2ccccc2[nH]1)/c1ccc(/C=C/c2nc3ccccc3[nH]2)cc1` is 428 nm; for `CN(C)c1ccc(C(=Cc2ccc(/C=C/c3ccc(C#N)cc3)cc2)c2ccc(N(C)C)cc2)cc1` it is 481 nm.

Still in this series, the particulars now being: in C1COCCO1.
On to `CCCCCCCN1C(=CC2=C([O-])C(=Cc3sc4ccccc4[n+]3CCCCCCC)C2=C(C#N)C#N)Sc2ccccc21`, for which the emission maximum is given as 723 nm.
On the same count and under the same terms, the figure for `CC(=O)c1c2c(cc3ccc(N(C)C)cc13)CCC2` is 495 nm; for `CCCCCCCCC1(CCCCCCCC)c2cc(C#CC#Cc3ccc(N(c4ccccc4)c4ccccc4)cc3)ccc2-c2ccc(C=O)cc21` it is 448 nm.

The series is the same for the next values; noted with them: in CC1COC(=O)O1.
In the case of `CN(C)c1ccc(/C=C/c2cc[n+](CCC[n+]3ccc(/C=C/c4ccc(N(C)C)cc4)cc3)cc2)cc1`, the emission maximum is recorded as 604 nm.

The same series, now with this note: in CC#N.
Compound `CC(=O)c1c2c(cc3ccc(N(C)C)cc13)CCC2` displayed an emission maximum of 529 nm.
Regarding `COc1ccc(/C=C2\OC(=O)c3ccccc32)cc1`, the emission maximum is 456.2 nm and 446 nm.
Same read-out and setting: for `O=C1c2cc(F)ccc2-c2cnccc21` the value was 540.43 nm; for `CCOC(=O)c1c2c3c(ccc(OC)c3c3cc4ccccc4cc13)N(C)C2=O`, 413 nm.
Same read-out and setting: for `CCCCCCCCC1(CCCCCCCC)c2cc(C#CC#Cc3ccc(N(c4ccccc4)c4ccccc4)cc3)ccc2-c2ccc(C=O)cc21` the value was 525 nm; for `C(=C\c1nc2ccccc2[nH]1)/c1ccc(/C=C/c2nc3ccccc3[nH]2)cc1`, 427 nm; for `CN(C)c1ccc(/C=C/c2cc[n+](CCC[n+]3ccc(/C=C/c4ccc(N(C)C)cc4)cc3)cc2)cc1`, 609 nm.
In turn, `CC(=O)c1cc2c(cc1F)NC(C)(C)CC2=O` displayed an emission maximum of 417 nm.
For `CN1/C(=C\C=C\C2=C3C=CC(c4ccccc4)=[N+]3[B-](F)(F)n3c2ccc3-c2ccccc2)Sc2ccccc21`, the emission maximum is on record as 727 nm.

The series is the same for the next values; noted with them: in CC(C)=O.
In turn, `COc1ccc(/C=C2\OC(=O)c3ccccc32)cc1` showed an emission maximum of 452.49 nm.
On the same count and under the same terms, the figure for `CCCCCCCCC1(CCCCCCCC)c2cc(C#CC#Cc3ccc(N(c4ccccc4)c4ccccc4)cc3)ccc2-c2ccc(C=O)cc21` is 541 nm; for `C(=C\c1nc2ccccc2[nH]1)/c1ccc(/C=C/c2nc3ccccc3[nH]2)cc1` it is 427 nm.
On the same count and under the same terms, the figure for `CN(C)c1ccc(/C=C/c2cc[n+](CCC[n+]3ccc(/C=C/c4ccc(N(C)C)cc4)cc3)cc2)cc1` is 608 nm.

Still in this series, the particulars now being: in CC(C)CO.
Turning to `COc1ccc(/C=C2\OC(=O)c3ccccc32)cc1`, the emission maximum came out at 451.88 nm.

Staying with this series, now noted: in CC(C)O.
In the case of `COc1ccc(/C=C2\OC(=O)c3ccccc32)cc1`, the emission maximum came out at 459.77 nm.
Compound `CN(C)c1ccc(/C=C/c2cc[n+](CCC[n+]3ccc(/C=C/c4ccc(N(C)C)cc4)cc3)cc2)cc1` returned an emission maximum of 594 nm.

Staying with this series, now noted: in CCCCCC.
In turn, `O=C1c2cc(F)ccc2-c2cnccc21` returned an emission maximum of 486.26 nm.
In turn, `CCCCCCCCC1(CCCCCCCC)c2cc(C#CC#Cc3ccc(N(c4ccccc4)c4ccccc4)cc3)ccc2-c2ccc(C=O)cc21` gave an emission maximum of 422 nm.
Turning to `C[Si](C)(C)c1ccc2ccc3c([Si](C)(C)C)ccc4ccc1c2c43`, the emission maximum turned out to be 380 nm.

The series is the same for the next values; noted with them: in CCCO.
Take `COc1ccc(/C=C2\OC(=O)c3ccccc32)cc1`: the emission maximum came to 460.83 nm.

Still in this series, the particulars now being: in CCO.
`COc1ccccc1-c1c2ccc(=[N+]3CCCCC3)cc-2oc2cc(N3CCCCC3)ccc12` had an emission maximum of 586 nm.
On the same count and under the same terms, the figure for `CCCCCCCN1C(=CC2=C([O-])C(=Cc3sc4ccccc4[n+]3CCCCCCC)C2=C(C#N)C#N)Sc2ccccc21` is 711 nm; for `CC(=O)c1c2c(cc3ccc(N(C)C)cc13)CCC2` it is 578 nm; for `COc1ccc(/C=C2\OC(=O)c3ccccc32)cc1` it is 459.35 nm.
The same measure, in the same setting: for `CN(C)c1ccc(/C=C/c2cc[n+](CCC[n+]3ccc(/C=C/c4ccc(N(C)C)cc4)cc3)cc2)cc1` the value was 601 nm; for `CC(=O)c1cc2c(cc1F)NC(C)(C)CC2=O`, 457 nm.

Staying with this series, now noted: in CCOC(C)=O.
Compound `COc1ccc(/C=C2\OC(=O)c3ccccc32)cc1` registered an emission maximum of 438.6 nm.
On the same count and under the same terms, the figure for `CCCCCCCCC1(CCCCCCCC)c2cc(C#CC#Cc3ccc(N(c4ccccc4)c4ccccc4)cc3)ccc2-c2ccc(C=O)cc21` is 500 nm.
With `Cn1ncc2c3c(C#N)c4c5ccccc5n(C)c4nc3ccc21`, the emission maximum was 478 nm.

The same series, now with this note: in CCOCC.
Consider `COc1ccc(/C=C2\OC(=O)c3ccccc32)cc1`, for which the emission maximum worked out at 434.03 nm.

Staying with this series, now noted: in CN(C)C=O.
Turning to `CCCCCCCN1C(=CC2=C([O-])C(=Cc3sc4ccccc4[n+]3CCCCCCC)C2=C(C#N)C#N)Sc2ccccc21`, the emission maximum stood at 717 nm.
The compound `CCCCCCCCC1(CCCCCCCC)c2cc(C#CC#Cc3ccc(N(c4ccccc4)c4ccccc4)cc3)ccc2-c2ccc(C=O)cc21` returned an emission maximum of 523 nm.
Still for that read-out and setting: the figure for `C(=C\c1nc2ccccc2[nH]1)/c1ccc(/C=C/c2nc3ccccc3[nH]2)cc1` is 433 nm.
Same read-out and setting: for `CN(C)c1ccc(/C=C/c2cc[n+](CCC[n+]3ccc(/C=C/c4ccc(N(C)C)cc4)cc3)cc2)cc1` the value was 607 nm.

Staying with this series, now noted: in CO.
In the case of `COc1cccc(-c2nc(-c3ccccc3)c(-c3ccccc3)[nH]2)c1`, the emission maximum came out at 379 nm.
On the same count and under the same terms, for `COc1ccc(/C=C2\OC(=O)c3ccccc32)cc1` the value was 459.35 nm; for `CCCN1/C(=C/C=C(/C=C/C2=[N+](CCC)c3ccccc3C2(C)C)c2ccncc2)C(C)(C)c2ccccc21`, 648 nm; for `C(=C\c1nc2ccccc2[nH]1)/c1ccc(/C=C/c2nc3ccccc3[nH]2)cc1`, 422 nm.
Same read-out and setting: for `CN(C)c1ccc(/C=C/c2cc[n+](CCC[n+]3ccc(/C=C/c4ccc(N(C)C)cc4)cc3)cc2)cc1` the value was 604 nm; for `CN(C)c1ccc(/C=C(\C#N)c2nc3ccccc3s2)cc1`, 520 nm; for `C[Si](C)(C)c1ccc2ccc3c([Si](C)(C)C)ccc4ccc1c2c43`, 380 nm.

The same series, now with this note: in CS(C)=O.
In turn, `CC(=O)c1c2c(cc3ccc(N(C)C)cc13)CCC2` came in with an emission maximum of 536 nm.
On the same count and under the same terms, the figure for `CCCN1/C(=C/C=C(/C=C/C2=[N+](CCC)c3ccccc3C2(C)C)c2ccncc2)C(C)(C)c2ccccc21` is 655 nm; for `CCCCCCCCC1(CCCCCCCC)c2cc(C#CC#Cc3ccc(N(c4ccccc4)c4ccccc4)cc3)ccc2-c2ccc(C=O)cc21` it is 540 nm; for `C(=C\c1nc2ccccc2[nH]1)/c1ccc(/C=C/c2nc3ccccc3[nH]2)cc1` it is 439 nm.
Same read-out and setting: the figure for `CN(C)c1ccc(/C=C/c2cc[n+](CCC[n+]3ccc(/C=C/c4ccc(N(C)C)cc4)cc3)cc2)cc1` is 610 nm.

Staying with this series, now noted: in Cc1ccccc1.
On to `CC(=O)c1c2c(cc3ccc(N(C)C)cc13)CCC2`, for which the emission maximum was 490 nm.
`CCCCCCCCC1(CCCCCCCC)c2cc(C#CC#Cc3ccc(N(c4ccccc4)c4ccccc4)cc3)ccc2-c2ccc(C=O)cc21` registered an emission maximum of 442 nm.

Still in this series, the particulars now being: in ClC(Cl)Cl.
As to `CCCCCCCN1C(=CC2=C([O-])C(=Cc3sc4ccccc4[n+]3CCCCCCC)C2=C(C#N)C#N)Sc2ccccc21`, the emission maximum turned out to be 724 nm.
Take `CC(=O)c1c2c(cc3ccc(N(C)C)cc13)CCC2`: the emission maximum was 516 nm.
In turn, `CCCCCCCCCCCCOc1cc2c3c(ccc4c5c(N6CCOCC6)cc6c7c(ccc(c1c34)c75)C(=O)N(C1CCCCC1)C6=O)C(=O)N(C1CCCCC1)C2=O` came in with an emission maximum of 697 nm.
Consider `CCCCCCc1ccc(-n2c3c4cccc(OC)c4nc(-c4ccc(C)cc4)c3c3c2c2c(-c4ccc(C)cc4)nc4c(OC)cccc4c2n3-c2ccc(CCCCCC)cc2)cc1`, for which the emission maximum came out at 464 nm.
Still for that read-out and setting: for `CCCCCCCCC1(CCCCCCCC)c2cc(C#CC#Cc3ccc(N(c4ccccc4)c4ccccc4)cc3)ccc2-c2ccc(C=O)cc21` the value was 500 nm; for `CN(C)c1ccc(/C=C/c2cc[n+](CCC[n+]3ccc(/C=C/c4ccc(N(C)C)cc4)cc3)cc2)cc1`, 566 nm; for `CC1=CC(C)=[N+]2C1=C(c1ccc(I)cc1)c1c(C)cc(C)n1[B-]2(F)F`, 517.73 nm.
As for `CN1C(=CC2=C([O-])C(=Cc3oc4ccccc4[n+]3C)C2=C(C#N)C#N)C(C)(C)c2ccccc21`, the emission maximum turned out to be 673 nm.

The series is the same for the next values; noted with them: in ClCCl.
As to `CC(C)(C)c1ccc2c(c1)c1cc(C(C)(C)C)ccc1n2-c1ccc(-c2cccs2)s1`, the emission maximum is 417 nm.
Same read-out and setting: for `CCCCC(CC)Cn1c2cc(C#N)ccc2c2ccc(C#Cc3ccc4ccc5ccc(C#Cc6ccc7c8ccc(C#N)cc8n(CC(CC)CCCC)c7c6)c6ccc3c4c56)cc21` (stereo unspecified) the value was 458 nm; for `COc1ccccc1-c1c2ccc(=[N+]3CCCCC3)cc-2oc2cc(N3CCCCC3)ccc12`, 585 nm; for `CCOC(=O)/N=c1/oc2cc(N(CC)CC)ccc2cc1C#N`, 486 nm.
As to `COc1cc2c(cc1OC)C1=C[C@H](c3ccc(Cl)cc3)C3(C(C#N)=C(C#N)N1CC2)c1cc(Br)ccc1-c1ccc(Br)cc13`, the emission maximum is recorded as 420 nm.
Take `CC(=O)c1c2c(cc3ccc(N(C)C)cc13)CCC2`: the emission maximum amounted to 510 nm.
Still for that read-out and setting: the figure for `CCCCCCCCC1(CCCCCCCC)c2cc(C#CC#Cc3ccc(N(c4ccccc4)c4ccccc4)cc3)ccc2-c2ccc(C=O)cc21` is 520 nm; for `COc1ccc(-c2cc3c(ccc4sc5ccc6sc(-c7ccc(C#N)cc7)cc6c5c43)s2)cc1` it is 469 nm.
The same measure, in the same setting: for `Oc1ccc2ccccc2c1-c1nc2c(c3c1-c1ccccc1CC3)-c1ccccc1CC2` the value was 405 nm.
The compound `c1ccc(-n2nc(-c3ccc(-c4ccc5c(c4)C(c4ccccc4)(c4ccccc4)c4ccccc4-5)cc3)nc2-c2ccccn2)cc1` returned an emission maximum of 358 nm.
Turning to `CC(C)(C)c1ccc2c(c1)c1ncncc1c1c3ccccc3sc21`, the emission maximum amounted to 414 nm.
The same measure, in the same setting: the figure for `C[Si](C)(C)c1ccc2ccc3c([Si](C)(C)C)ccc4ccc1c2c43` is 381 nm.

The series is the same for the next values; noted with them: in O.
Compound `CCCN1/C(=C/C=C(/C=C/C2=[N+](CCC)c3ccccc3C2(C)C)c2ccncc2)C(C)(C)c2ccccc21` returned an emission maximum of 658 nm.
`CN(C)c1ccc(/C=C/c2cc[n+](CCC[n+]3ccc(/C=C/c4ccc(N(C)C)cc4)cc3)cc2)cc1` had an emission maximum of 597 nm.

Staying with this series, now noted: in c1ccncc1.
`CN(C)c1ccc(/C=C/c2cc[n+](CCC[n+]3ccc(/C=C/c4ccc(N(C)C)cc4)cc3)cc2)cc1` gave an emission maximum of 598 nm.
